Assay results taken from patent US20230173084A1, “PEPTIDE-BASED SYNTHETIC CHLORIDE ION TRANSPORTERS” (Tavanta Therapeutics Hungary Incorporated, priority 2019, published 2023).

Tests used:
pancreatic organoids = test: intracellular Cl- level (MQAE) in 3D pancreatic organoids; type: cell-based; conditions: 100 µM
Procedure: To assess the biological activity of CPPs changes of intracellular Cl^— level was measured by loading HEK-293 cells with 5 µM N-(Ethoxycarbonylmethyl)-6-Methoxyquinolinium Bromide (MQAE; ThermoFischer; Catalog number: E3101) for 30 min in the presence of 0.05% Pluronic F-127. Cells were bathed with Cl^— free external solution and treated with different concentrations of CPPs at 37° C. at the perfusion rate of 2-3 ml/min. Region of interests (ROIs) were determined by the xcellence softver (Olympus) and changes of Cl^— were determined by exciting the cells with an MT20 light source equipped with a 340/11 nm excitation filter. Excitation and emission wavelengths were separated by a 400 nm beam splitter and the emitted light was captured by a Hamamatsu ORCA- ER CCD camera. One measurement per second was obtained. During further analysis the fluorescence signals were normalized to the initial fluorescence intensity (F1/F0) and expressed as normalized MQAE fluorescence (FIG. 2). […] N: 4-5 independent experiments/each tested condition.
To test the Cl^— transporting capability of CPPs in primary 3D cells, organoids were loaded with MQAE as above described and bathed in standard HEPES buffered solution (FIG. 4.). […] N: 4-5 independent experiments/each tested condition.

CFTR knockout mice = test: severity of lung fibrosis in Cftr knockout mice, nebulized treatment; type: in vivo, mouse
Description: To assess the effect of in vivo administrated Formula (II) on lung histology parameters, this Example use Cftr^tm1UncTg(FABPCFTR)1Jaw/J mice (Jackson Laboratory, Stock No: 002364). FABP-hCFTR-CFTR bitransgenic mice harbor the FABP-hCFTR transgene [rat fatty acid binding protein 2, intestinal promoter directing expression of a human cystic fibrosis transmembrane conductance regulator (ATP-binding cassette sub-family C, member 7) gene] and a targeted knock-out mutation of the cystic fibrosis transmembrane conductance regulator homolog gene (Cftr). The mice used in this study were 8-12 weeks old and weighted 20-25 grams in the case of wild type (WT) animals and 15-17 grams in the case of CFTR knockout animals, the gender ratio was 1:1 for all groups. Experiments were carried out with adherence to the NIH guidelines and the EU directive 2010/63/EU for the protection of animals used for scientific purposes. The study was authorized by the National Scientific Ethical Committee on Animal Experimentation under license number XXI./1540/2020. Formula (II) was dissolved in physiological saline in a concentration of 10 µM. Treated mice received 400 µL Formula (II) dissolved in physiological saline solution in 5 minutes in a nebulizer in continuous oxygen flow (2L/min). Control animals received physiological saline as vehicle. The mice were grouped into 4 treatment groups as follows: wild type control (Group 1), CFTR knockout control (Group 2), wild type treated (Group 3), CFTR knockout treated (Group 4). Treatment was performed daily for 4 weeks. At the end of the experiments, mice received terminal anesthesia and the lungs were removed. Lungs were fixed for histology and trichrome staining was performed to assess lung parenchyma density and lung fibrosis. Sections were digitalized and fibrosis was scored as follows. 1388×1038 resolution pictures were taken with 10x and 40x magnification objectives with Zeiss ICc3 camera. […] Positive pixels were counted as fibrosis, negative pixels were counted as tissue. […]

[1] = apoptosis/necrosis detection kit, effect on cell fate; type: cell-based; conditions: human; HEK-293 cells, 100 µM, 30 min; read-out: viable cells after the incubation
Procedure: (§1) To investigate the effect of compounds according to the invention on cell fate, an apoptosis/necrosis detection kit was used according to the manufacturer’s instruction (Abcam Cat. No.: ab176750). Briefly, HEK-293 cells were incubated with various concentrations of CPPs for 30 min at 37° C. Cells were then washed 3 times and were incubated in 200 µL of Assay Buffer and loaded with CytoCalcein 450, Nuclear Green and Apopxin Deep Red at room temperature for 30-60 min. Following this, cells were washed and imaged. Images were captured using a Zeiss LSM880 confocal microscope with different channels and wavelengths according to each dye: CytoCalcein 450 (Ex/Em = 405/450 nm), Nuclear Green (Ex/Em = 490/520 nm) and Apopxin Deep Red (Ex/Em = 630/660 nm). For each condition, five images were captured and the total number of cells were counted by two independent investigators. Results are visualized in % of total cell number (live/apoptotic/necrotic) (FIG. 1). […] However, the majority of cells survived the treatment.

HEK-293 cells = test: as above; type: cell-based; conditions: for apoptotic cell death: 30 min; for necrotic cell death: 30 min incubation at 37° C.; for toxicity: even in 100 µM
Procedure: as §1

O=C(O)c1ccc(/C=C2\SC(=S)N(c3cccc(C(F)(F)F)c3)C2=O)cc1 [CFTRinh172]
effect on the fluorescent increase after removal of extracellular Cl- (CFTR-mediated Cl- efflux) (pancreatic organoids): almost completely abolished the fluorescent increase

CC[C@H](C)[C@H](NC(=O)[C@H](CCCCN)NC(=O)[C@@H](NC(=O)[C@H](CCC(N)=O)NC(=O)[C@H](CCCNC(=N)N)NC(=O)CCCCCNC(=S)Nc1cc(C(F)(F)F)cc(C(F)(F)F)c1)[C@@H](C)CC)C(=O)N[C@@H](Cc1c[nH]c2ccccc12)C(=O)N[C@@H](Cc1ccccc1)C(=O)N[C@@H](CCC(N)=O)C(=O)N[C@@H](CC(N)=O)C(=O)N[C@@H](CCCNC(=N)N)C(=O)N[C@@H](CCCNC(=N)N)C(=O)N[C@@H](CCSC)C(=O)N[C@@H](CCCCN)C(=O)N[C@@H](Cc1c[nH]c2ccccc12)C(=O)N[C@@H](CCCCN)C(=O)N[C@@H](CCCCN)C(N)=O [Formula (II)]
body weight (CFTR knockout mice; all groups, 4 weeks of daily treatment): maintained their initial weights
adverse events during the treatment (CFTR knockout mice; mice, nebulized daily for 4 weeks): no adverse events were observed
clinical signs of toxicity (CFTR knockout mice; treated animals, nebulized daily for 4 weeks): No clinical signs of toxicity were observed
viability at 0.5 h, 100 µM [1]: 97.3%
apoptotic cell death (HEK-293 cells; 10 µM): limited rate of apoptotic cell death
apoptotic cell death (HEK-293 cells; 100 µM): limited rate of apoptotic cell death
necrotic cell death (HEK-293 cells): no necrotic cell death was observed
toxicity (HEK-293 cells): negligible toxicity

CC[C@H](C)[C@H](NC(=O)[C@H](CCCCN)NC(=O)[C@@H](NC(=O)[C@H](CCC(N)=O)NC(=O)[C@H](CCCNC(=N)N)NC(=O)c1ccc(N=C=S)cc1)[C@@H](C)CC)C(=O)N[C@@H](Cc1c[nH]c2ccccc12)C(=O)N[C@@H](Cc1ccccc1)C(=O)N[C@@H](CCC(N)=O)C(=O)N[C@@H](CC(N)=O)C(=O)N[C@@H](CCCNC(=N)N)C(=O)N[C@@H](CCCNC(=N)N)C(=O)N[C@@H](CCSC)C(=O)N[C@@H](CCCCN)C(=O)N[C@@H](Cc1c[nH]c2ccccc12)C(=O)N[C@@H](CCCCN)C(=O)N[C@@H](CCCCN)C(N)=O [Formula (III)]
viability at 0.5 h, 100 µM [1]: 97.3%
apoptotic cell death (HEK-293 cells; 100 µM): limited rate of apoptotic cell death
necrotic cell death (HEK-293 cells): no necrotic cell death was observed
toxicity (HEK-293 cells): negligible toxicity
